Assay results as given in US20230067277A1, “ANALOGUES OF MYCOSPORINE-LIKE AMINO ACID AND USE THEREOF AS SUNSCREENS” (BASF SE, priority 2020, published 2023).

Assays:
Type in all cases: physicochemical
[1] = Solubility test in cosmetic solvents and water; details: for solubility: % m/V; for precipitation visible after: addition to the respective solvent
Protocol: The solubility of Compounds A to D was tested, wherein the addition of Compound A and B to the respective solvent had been stopped after 50% m/V. In case of Compound C and D, a precipitation after about 1% m/V had been visible. The respective pH-values (see Table 1) had been measured of the final solution or suspension, respectively.

[2] = Specific extinction coefficient (UV/VIS spectrophotometer); details: for E (1%, 1 cm), maximum absorbance: d=1 cm, 250 nm to 500 nm
Protocol: The specific extinction coefficient of Compounds A to D was measured using a Perkin Elmer Lambda 650 UV/VIS Spectrophotometer. A stock solution of concentration c=1 mM of the UV-absorber was prepared in a 100 ml volumetric flask using either buffer or ethanol. Dilution steps followed in order to adjust the concentration, such that the extinction E at optical pathlength d=1 cm will be 1.0±0.5. UV spectrum was determined in a cuvette of an optical pathlength of d=1 cm at 250 nm to 500 nm. With the Beer-Lambert law one obtains the molar decadic extinction coefficient at any wavelength with: The respective specific extinction E %1.1 cm can be obtained via the following equation: […] where M=molecular weight of the UV-absorber. A di-sodium hydrogen phosphate/potassium dihydrogen phosphate buffer (ordering number 1.09439.1000) or ethanol (ordering number 1.00983.2511), each purchased from Merck was used.

[3] = Incorporation of UV filter into water phase of cosmetic formulation; details: 2.00 in Formulations 1, 2 and 4; pH 7-8
Protocol: Formulations 1 to 4 and a Placebo formulation were manufactured as follows. Part A and part B (see Table 3) were prepared separately and heated to 75-80° C. Under increasing stirring, part B was incorporated to part A and homogenized with Ultra Turrax for 20 sec. at 11000 rpm. The mixture was let cooled down to rt under stirring and part C was added. At rt pH 7-8 was adjusted with NaOH.

[4] = Water, addition of Compound A and B stopped after 50% m/V
[5] = cosmetic solvent Cetiol Ultimate

pH-value of the final solution or suspension ([1]; Water) | solubility [1, 4] [%] | solubility ([1]; cosmetic solvent Cetiol AB) | solubility [1, 5] | solubility ([1]; cosmetic solvent Myritol 318) | E (1%, 1 cm), maximum absorbance ([2]; buffer pH7 (phosphate buffer)) | specific extinction coefficient / absorbance, comparison among Compounds A to D (FIG. 1) ([2]; FIG. 1) | precipitation visible after [1] | E (1%, 1 cm), maximum absorbance ([2]; in EtOH) | Structure (SMILES) | incorporation of UV filter into the water phase in sufficiently high concentrations [3]
(pH 6) | >50.0 | insoluble | insoluble | insoluble | 943 | – | – | – | CC1=C(NCCOCCO)CCC/C1=N\CCOCCO.Cl [Compound A, (E)-2-(2-hydroxyethoxy)-N-(3-((2-(2-hydroxyethoxy)ethyl)amino)-2-methylcyclohex-2-en-1-ylidene)ethan-1-aminium chloride] | could be incorporated into the water phase in sufficiently high concentrations
(pH 6) | >50.0 | insoluble | insoluble | insoluble | 1725 | highest specific extinction coefficient | – | – | CC1=C(NCCO)CCC/C1=N\CCO.Cl [Compound B, (E)-2-hydroxy-N-(3-((2-hydroxyethyl)amino)-2-methylcyclohex-2-en-1-ylidene)ethan-1-aminium chloride] | could be incorporated into the water phase in sufficiently high concentrations
(pH 7) | <1.0 | <1.2% | <1.0% | <1.0% | – | – | about 1 % m/V | 737 | COc1ccc(/N=C2\CCC(Nc3ccc(OC)cc3)=C2C)cc1.Cc1ccc(S(=O)(=O)O)cc1 [Compound C, (E)-4-methoxy-N-(3-((4-methoxyphenyl)amino)-2-methylcyclopent-2-en-1-ylidene)benzenaminium 4-methylbenzenesulfonate] | –
(pH 7) | <1.0 | <1.2% | <1.0% | <1.0% | – | – | about 1 % m/V | 659 | CC1=C(Nc2ccccc2Br)CC/C1=N\c1ccccc1Br.Cc1ccc(S(=O)(=O)O)cc1 [Compound D, (E)-2-bromo-N-(3-((2-bromophenyl)amino)-2-methylcyclopent-2-en-1-ylidene)benzenaminium 4-methylbenzenesulfonate] | not been possible to solve
